Data: US20250049036A1 (priority 2021, published 2025)

Assays:
[1] = tested on: Phytophthora infestans; assay: microbe, parasite or virus in culture; type: cell-based; details: 168 h, read-out: control compared to the untreated check
[2] = tested on: Pyricularia oryzae; assay: microbe, parasite or virus in culture; type: cell-based; details: 168 h, read-out: control compared to the untreated check
[3] = tested on: Parastagonospora nodorum; assay: Parastagonospora nodorum (PARANO) spore growth inhibition in liquid medium, 96-well microtiter plate, OD 600; type: cell-based; details: spore suspension in PDB liquid medium, 18° C., 5-6 days, OD at 600, read-out: control compared to the untreated check
Method in brief: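 Read-out is percent growth inhibition from OD at 600 after 5-6 days at 18° C. Compounds, dissolved in DMSO, were diluted in potato dextrose broth and combined in equal volume with a 10^5 spores/ml suspension of PARANO.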

[4] = tested on: Botrytis cinerea; assay: Botrytis cinerea liq. (BOTRCI) spore growth inhibition in liquid medium, 96-well microtiter plate, OD 405 nm; type: cell-based; details: spore suspension in YBA liquid medium, 22° C., 5-6 days, OD at 405 nm, read-out: control compared to the untreated check
Method: Yeast bacterial peptone and sodium acetate (YBA) liquid medium containing a BOTRCI (10^4 spores/ml) spore suspension was prepared. For the inhibition assay, each test compound was solved in dimethyl sulfoxide. 100 μl of the test compound in media-solution was added to a 96-well microtiter plate, consequently, the same volume (100 μl) of spore suspension was added to the well making the final test concentrations and the plate was incubated at 22° C. for 5-6 days. The growth inhibition was evaluated by measuring the OD at 405 nm. Percent inhibition was calculated with the below formula:
Where T=treatment, C=control, and B=blank

[5] = tested on: Colletotrichum capsici; assay: Colletotrichum capsici (anthracnose) mycelial radial growth on potato dextrose agar; type: cell-based; details: Colletotrichum truncatum, 168 h, 25° C., seven days, read-out: control compared to the untreated check
Method: The compounds were dissolved in 0.3% dimethyl sulfoxide and then added to potato dextrose agar medium just prior to dispensing it into petri dishes. 5 mL medium, with the compound in the desired concentration, was dispensed into 60 mm sterile petri-plates. After solidification, each plate was seeded with a 5 mm size mycelial disc taken from the periphery of an actively growing virulent culture plate. The plates were incubated in growth chambers at 25° C. temperature and 60% relative humidity for seven days and the radial growth was measured and compared to the one of the untreated control.

[6] = tested on: Botrytis cinerea; assay: Botrytis cinerea test on tomato, preventive, greenhouse; type: in vivo; details: preventive spray on bean/chili plants (heading: tomato), inoculated one day after treatment, read-out: control (efficacy, disease severity) compared to the untreated check
[7] = tested on: Phakopsora pachyrhizi; assay: Phakopsora pachyrhizi test on soybean, preventive, greenhouse; type: in vivo; details: preventive spray on soybean, inoculated one day after treatment, read-out: control (efficacy, disease severity) compared to the untreated check
Method in brief: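 Greenhouse-grown young soybean plants were sprayed with compound (2% DMSO/acetone, emulsifier in water) at the stated rate. One day later they were inoculated with 2×10^5 P. pachyrhizi inoculum and held at 22-24 °C, 80-90% relative humidity for disease development.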

SMILES	inhibition of growth at 300 ppm [1]	inhibition of growth at 300 ppm [3]	also measured
Cn1cc(Br)c2cc(C(=O)NC(C)(C)COCc3ccccc3C#N)cnc21 [Compound 196]	≥ 70%		
Cn1cc(Br)c2cc(C(=O)NC(C)(C)COc3ccc(F)cn3)cnc21 [Compound 216, 3-bromo-N-(1-((5-fluoropyridin-2-yl)oxy)-2-methylpropan-2-yl)-1-methyl-1H-pyrrolo[2,3-b]pyridine-5-carboxamide]	≥ 70%		
CC(C)(COc1ccc(F)cn1)NC(=O)c1cnc2c(c1)CCC2 [Compound 233, N-(1-((5-fluoropyridin-2-yl)oxy)-2-methylpropan-2-yl)-6,7-dihydro-5H-cyclopenta[b]pyridine-3-carboxamide]	≥ 70%		
CON(C(=O)c1cnc2c(ccn2C)c1)C(C)Cc1ccccc1F (centres unmarked) [Compound 239, N-(1-(2-fluorophenyl)propan-2-yl)-N-methoxy-1-methyl-1H-pyrrolo[2,3-b]pyridine-5-carboxamide]		≥ 70%	inhibition of growth at 300 ppm [2]: ≥ 70%; inhibition of growth at 300 ppm [4]: ≥ 70%
Cn1ccc2cc(C(=O)NC(C)(C)COc3ccnc(Cl)c3)cnc21 [Compound 229, N-(1-((2-chloropyridin-4-yl)oxy)-2-methylpropan-2-yl)-1-methyl-1H-pyrrolo[2,3-b]pyridine-5-carboxamide]	≥ 70%		
C=C(C)CC(C)(COc1ccccc1F)NC(=O)c1cnc2cc[nH]c2c1 (centres unmarked) [Compound 175, N-(1-(2-fluorophenoxy)-2,4-dimethylpent-4-en-2-yl)-1H-pyrrolo[3,2-b] pyridine-6-carboxamide]	≥ 70%	≥ 70%	inhibition of growth at 300 ppm [5]: ≥ 70%
COc1cc(C(O)C(C)(C)NC(=O)c2cnc3c(ccn3C)c2)ccc1F (centres unmarked) [Compound 123, N-(1-(4-fluoro-3-methoxyphenyl)-1-hydroxy-2-methylpropan-2-yl)-1-methyl-1H-pyrrolo[2,3-b]pyridine-5-carboxamide]	≥ 70%		
CC(C)(COc1ccccn1)NC(=O)c1cnc2c(c1)CCC2 [Compound 202, N-(2-methyl-1-(pyridin-2-yloxy)propan-2-yl)-6,7-dihydro-5H-cyclopenta[b]pyridine-3-carboxamide]	≥ 70%		inhibition of growth at 300 ppm [4]: ≥ 70%
O=C(NC1(Cc2ccccc2)CC1)c1cc2c(nc1Cl)CCC2 [Compound 246, N-(1-benzylcyclopropyl)-2-chloro-6,7-dihydro-5H-cyclopenta[b]pyridine-3-carboxamide]	≥ 70%		
CC(C)(COc1ccc(C#N)cn1)NC(=O)c1cnc2c(c1)CCC2 [Compound 223, N-(1-((5-cyanopyridin-2-yl)oxy)-2-methylpropan-2-yl)-6,7-dihydro-5H-cyclopenta[b]pyridine-3-carboxamide]	≥ 70%	≥ 70%	inhibition of growth at 300 ppm [4]: ≥ 70%
CC(CCc1ccccc1)NC(=O)c1cc2c(nc1Cl)CCC2 (centres unmarked) [Compound 250, 2-chloro-N-(4-phenylbutan-2-yl)-6,7-dihydro-5H-cyclopenta[b]pyridine-3-carboxamide]	≥ 70%		
Cn1ccc2cc(C(=O)NC(C)(C)Cc3ccc(F)cc3F)cnc21 [Compound 20]			inhibition of growth at 300 ppm [2]: ≥ 70%; inhibition of growth at 300 ppm [5]: ≥ 70%; inhibition of growth at 300 ppm [4]: ≥ 70%
COc1nc2c(cc1C(=O)NCC1(c3ccccc3)CC1)CCC2 [Compound 247, 2-methoxy-N-((1-phenylcyclopropyl)methyl)-6,7-dihydro-5H-cyclopenta[b]pyridine-3-carboxamide]		≥ 70%	inhibition of growth at 300 ppm [5]: ≥ 70%; inhibition of growth at 300 ppm [4]: ≥ 70%
CC(C)(COc1ccc(F)cn1)NC(=O)c1cnc2ccsc2c1 [Compound 207, N-(1-((5-fluoropyridin-2-yl)oxy)-2-methylpropan-2-yl)thieno[3,2-b] pyridine-6-carboxamide]	≥ 70%		
CC(C)(CO)NC(=O)c1cnc2ccsc2c1 [Compound 111, N-(1-hydroxy-2-methylpropan-2-yl)thieno[3,2-b] pyridine-6-carboxamide]	≥ 70%		
COc1nc2c(ccn2C)cc1C(=O)NC(C)(C)Cc1ccccc1 [Compound 91, 6-methoxy-1-methyl-N-(2-methyl-1-phenylpropan-2-yl)-1H-pyrrolo[2,3-b] pyridine-5-carboxamide]	≥ 70%		
CC(C)(COc1ccnc(Cl)c1)NC(=O)c1cc2c(nc1Cl)CCC2 [Compound 244, 2-chloro-N-(1-((2-chloropyridin-4-yl)oxy)-2-methylpropan-2-yl)-6,7-dihydro-5H-cyclopenta[b]pyridine-3-carboxamide]		≥ 70%	inhibition of growth at 300 ppm [4]: ≥ 70%
CC(C)(Cc1ccccc1)NC(=O)c1cnc2cc[nH]c2c1 [Compound 95, N-(2-methyl-1-phenylpropan-2-yl)-1H-pyrrolo[3,2-b] pyridine-6-carboxamide]	≥ 70%	≥ 70%	pest or weed control at 500 ppm [6]: ≥ 70%; pest or weed control at 500 ppm [7]: ≥ 70%
Cn1ccc2ncc(C(=O)NC(C)(C)Cc3ccccc3)cc21 [Compound 86, 1-methyl-N-(2-methyl-1-phenylpropan-2-yl)-1H-pyrrolo[3,2-b] pyridine-6-carboxamide]	≥ 70%	≥ 70%	pest or weed control at 500 ppm [6]: ≥ 70%; pest or weed control at 500 ppm [7]: ≥ 70%
Cn1cc(Cl)c2cc(C(=O)NC(C)(C)COc3ccccn3)cnc21 [Compound 219, 3-chloro-1-methyl-N-(2-methyl-1-(pyridin-2-yloxy)propan-2-yl)-1H-pyrrolo[2,3-b] pyridine-5-carboxamide]			inhibition of growth at 300 ppm [2]: ≥ 70%; inhibition of growth at 300 ppm [4]: ≥ 70%
Cc1ccc(COCC(C)(C)NC(=O)c2cnc3c(c2)c(Br)cn3C)c(C)c1 [Compound 201, 3-bromo-N-(1-((2,4-dimethylbenzyl)oxy)-2-methylpropan-2-yl)-1-methyl-1H-pyrrolo[2,3-b]pyridine-5-carboxamide]	≥ 70%		
O=C(NCC1(c2ccccc2)CC1)c1cc2c(nc1Cl)CCC2 [Compound 248, 2-chloro-N-((1-phenylcyclopropyl)methyl)-6,7-dihydro-5H-cyclopenta[b]pyridine-3-carboxamide]	≥ 70%		
Cc1cccc(CC(NC(=O)c2cnc3ccsc3c2)C(C)(C)O)c1 (centres unmarked) [Compound 114, N-(3-hydroxy-3-methyl-1-(m-tolyl)butan-2-yl)thieno[3,2-b] pyridine-6-carboxamide]	≥ 70%		
CC(c1ccccc1)C(C)(C)NC(=O)c1cnc2c(ccn2C)c1 (centres unmarked) [Compound 8, 1-methyl-N-(2-methyl-3-phenylbutan-2-yl)-1H-pyrrolo[2,3-b] pyridine-5-carboxamide]		≥ 70%	inhibition of growth at 300 ppm [2]: ≥ 70%; inhibition of growth at 300 ppm [5]: ≥ 70%; inhibition of growth at 300 ppm [4]: ≥ 70%
COc1cc(C(O)C(C)(C)NC(=O)c2cnc3ccsc3c2)ccc1F (centres unmarked) [Compound 119, N-(1-(4-fluoro-3-methoxyphenyl)-1-hydroxy-2-methylpropan-2-yl)thieno[3,2-b] pyridine-6-carboxamide]	≥ 70%	≥ 70%	inhibition of growth at 300 ppm [2]: ≥ 70%; pest or weed control at 500 ppm [7]: ≥ 70%
Cc1cccc(CC(C)(C)NC(=O)c2cnc3c(ccn3C)c2)c1 [Compound 27, 1-methyl-N-(2-methyl-1-(m-tolyl)propan-2-yl)-1H-pyrrolo[2,3-b] pyridine-5-carboxamide]	≥ 70%	≥ 70%	
CC(C)(COc1ccccn1)NC(=O)c1cnc2ccsc2c1 [Compound 212, N-(2-methyl-1-(pyridin-2-yloxy)propan-2-yl)thieno[3,2-b] pyridine-6-carboxamide]	≥ 70%		
CC(C)(COC(=O)c1cccc(F)c1)NC(=O)c1cnc2cc[nH]c2c1 [Compound 156, 2-methyl-2-(1H-pyrrolo[3,2-b]pyridine-6-carboxamido)propyl 3-fluorobenzoate]	≥ 70%		
COc1nc2c(cc1C(=O)NC(C)CCc1ccccc1)CCC2 (centres unmarked) [Compound 249, 2-methoxy-N-(4-phenylbutan-2-yl)-6,7-dihydro-5H-cyclopenta[b]pyridine-3-carboxamide]	≥ 70%	≥ 70%	
